From paper PMC7831021, “Computational Evolution of Beta-2-Microglobulin Binding Peptides for Nanopatterned Surface Sensors” (International Journal of Molecular Sciences, 2021) come the findings set out here.

Where a SMILES comes first, the peptide text is derived from it. Bridges are numbered along the chain shown (N, C = ends).

The target in experiment [1] is T1, beta-2-Microglobulin (β2m) (Homo sapiens, UniProt P61769).
T1 construct: purchased Sigma Aldrich (Germany)
In words: Surface plasmon resonance (SPR) binding of peptides to immobilized β2m. Here is the method:
The interaction between the protein and computationally optimized peptides was measured using the BIAcore 3000 (GE Healthcare, Milano, Italy). β2m was immobilized at a concentration of 100 μg/mL in 10 mM acetate buffer pH 5 (flow rate 5 μL/min, time injection 7 min) on a CM5 Biacore sensor chip, using EDC/NHS chemistry following the manufacturer’s instructions. Residual reactive groups were deactivated by treatment with 1 M ethanolamine hydrochloride, pH 8.5. The reference channel was activated with EDC/NHS and deactivated with ethanolamine. The binding assays were carried out at 20 μL/min at 25 °C, with 4.5 min contact-time. Peptides were diluted in the HBS running buffer (10 mM Hepes, 150 mM NaCl, 3 mM EDTA, pH 7.4). Analyte injections were performed at the indicated concentrations. The sensor surface was regenerated by using 10mM NaOH for 1 min. The association phase (kon) was followed for 250 s, whereas the dissociation phase (koff) was followed for 300 s. The instrument BIAevaluation analysis package (version 4.1, GE Healthcare, Milano, Italy) was used to subtract the signal of the reference channel.

Experiment [2] addresses T1, beta-2-Microglobulin (β2m). In words: AFM differential height β2m binding (recognition) assay on dsDNA–peptide nanopatches. The following applies: 5 and 1.25 mg/mL β2m. On the procedure:
After the nanografting process, the sample was thoroughly rinsed with 1M NaCl, TE1X buffer (DNA-free buffer), followed by a hybridization procedure with 200 nM of ssDNA–peptide conjugates solution in 1 M NaCl, Te1X at pH 7.2 and the hybridization process took place at 37 °C for 1 h. This was repeated for different concentrations of the ssDNA–pep381 so as to obtain the plots in Figure 7. Next, the sample was copiously rinsed with 1M NaCl, TE1X buffer (DNA-free buffer). This was to remove any un-bound molecules and other excess molecules that were not part of the hybridization. At the end of hybridization process before β2m binding assays, we performed AFM topographic imaging at low force (~0.2 nN) in contact mode and acquired AFM micrographs of all the nanografted nanoassemblages that had undergone hybridization. This imaging section allowed us to compare the AFM micrographs of ssDNA nanopatches to the same after hybridization with ssDNA–peptide conjugates and measure their respective relative heights.
The dsDNA–peptide nanoassemblages were incubated with the known concentration of β2m solution for a period of 1 h at 25 °C. […] Next, we measured the relative height of dsDNA–peptide assemblage after the binding assay using the section tool in Igor Pro 6.3A software. […]

T1 sequence (P61769 21-119): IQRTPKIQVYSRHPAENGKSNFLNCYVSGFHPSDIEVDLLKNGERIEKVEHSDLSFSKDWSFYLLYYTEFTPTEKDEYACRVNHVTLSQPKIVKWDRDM

As usually defined, the kon is a measure of how fast the partners come together. The koff is the rate constant with which the complex falls apart. Consider `C[C@@H]1NC(=O)[C@H]([C@@H](C)O)NC(=O)[C@H](CCC(=O)O)NC(=O)[C@H](Cc2ccccc2)NC(=O)[C@@H](N)CSSC[C@@H](C(=O)O)NC(=O)[C@H](Cc2c[nH]c3ccccc23)NC(=O)[C@H](CCC(=O)O)NC(=O)[C@H](CC(N)=O)NC(=O)[C@H](CCC(N)=O)NC(=O)[C@H](CCCNC(=N)N)NC(=O)[C@H](Cc2c[nH]c3ccccc23)NC1=O` [pep331] (H-CFETAWRQNEWC-OH; disulfide 1-12), for which the kon in experiment [1] (BIAcore 3000, HBS pH 7.4, 25 °C, association followed for 250 s, χ^2 = 4.5) stood at 15 M⁻¹ s⁻¹. In experiment [1] (BIAcore 3000, HBS pH 7.4, 25 °C, dissociation followed for 300 s, χ^2 = 4.5), this compound had a koff of 0.00449 s⁻¹. Besides, in experiment [1] (SPR, 1:1 Langmuir), the “SPR affinity, in words” value was “micromolar KD estimated values”.
On to [CRRYSHQHYRHC] (disulfide) [pep381], for which the “recognition of respective binding sites on β2m, in words” value in experiment [2] was “relatively high sensitivity”.
